# Assays:
# [1] = test system: Hep2 (Human Epidermoid Larynx ca) cells; test: MTT cytotoxicity test on Hep2 cell line; format: cell-based
# Description: The oils of the plant as an extract are used which have been obtained by cold pressing and it has been ensured that the extract is fresh and pure. The extracts that have been obtained through the whole study have been initially diluted with solvents, filtered and sterilized. Cytotoxicity study (MTT test) has been developed as a method regarding the Hep2 cell line in all parameters for initial doses. The maximum dose and dilution sub doses that have been determined accordingly have been repeated controlled groups. Different amounts of Hep2 cells have been tested in flat bottomed 96 well plates for cell culture during the first stage of the study and it has been determined that 2×10^4 cells were optimal for the monolayer layer of 2×10^4 cell per well. A pure oil of Zingiber officinale extract, which has been tested inside various solvents in terms of penetration into cells and homogenous distribution. MTT tests have been carried out relating to Hep2 cells in solvents too. DMSO was selected from solvents such as DMSO and Methanol and was used and cytopathic doses have not been exceeded during the whole study (FIG. 1). Essential oil has been obtained from Ginger and emulsions have been obtained from fixed oil plants (Nigella Sativa etc.) and compounds. According to MTT test (FIG. 2) results that belong to Zingiber officinale, the average OD values of the control group have been determined as 1.38.
# Toxoplasma gondii = test: ELISA test of efficiency against Toxoplasma gondii in infected Hep2 cells; format: cell-based; details: 48 hour
# Description: An ELISA (Enzyme-Linked Immunosorbent Assay) test (FIG. 3) has been planned and conducted in order to determine efficiency against Toxoplasma gondii.
# The ELISA test has been carried out on flat bottom well plates having 96 wells. First of all, the bases of the plates have been covered with a suitable amount of Hep2 cells. […] Following this all wells have been processed again with different doses (determined with MTT) of pyrimtheamine, sulphadiazine—and Ginger (Zingiber officinals) extract, prepared with DMSO.
# 1 Following all of these procedures, the supernatants were removed from the wells and were retained for 10 minutes with 100 μl cold methanol. • The plates which were ready for the ELISA process were then worked.
# The result was read by the ELISA reader device in 30 minutes.
SMILES,OD value (MTT test) ([1]; 1 μg/ml),OD value (MTT test) ([1]; 2 μg/ml),OD value (MTT test) ([1]; 4 μg/ml),OD value (MTT test) ([1]; 8 μg/ml),OD value (MTT test) ([1]; 16 μg/ml),OD value (MTT test) ([1]; 32 μg/ml),ELISA OD value / reproduction according to positive control (PK) (Toxoplasma gondii; 0.5 μg/ml) [%],ELISA OD value / reproduction according to positive control (PK) (Toxoplasma gondii; 4 μg/ml) [%],ELISA OD value / reproduction according to positive control (PK) (Toxoplasma gondii; 2nd dose (printed '2.1 and 0.5 μg/ml': 2 μg/ml)) [%],ELISA OD value / reproduction according to positive control (PK) (Toxoplasma gondii; 3rd dose) [%],OD value (MTT test) ([1]; 50 μg/ml),OD value (MTT test) ([1]; 100 μg/ml),OD value (MTT test) ([1]; 200 μg/ml)
CCc1nc(N)nc(N)c1-c1ccc(Cl)cc1 [Pyrimethamine],1.228,1.198,0.623,0.310,0.209,0.097,75,45,56,54,–,–,–
Nc1ccc(S(=O)(=O)Nc2ncccn2)cc1 [Sulphadiazine],–,–,–,–,–,–,–,–,–,–,1.002,0.827,0.254

# Source: patent US20190351002A1, “METHOD OF TREATING CANCER, PARASITE, MICROBIAL OR FUNGAL DISEASE” (priority 2017, published 2019)
